Columns and labels:
[1] = molecular target: Cyclin-dependent kinase 5 (Homo sapiens, UniProt Q00535); experiment: Inhibition of human recombinant Cdk5/p35 by FRET assay
[2] = molecular target: Casein kinase I isoform epsilon (Homo sapiens, UniProt P49674); experiment: Inhibition of human recombinant CK1epsilon by FRET assay
Aurora kinase A = molecular target: T1, Aurora kinase A (Homo sapiens, UniProt O14965); experiment: Inhibition of human recombinant AURKA by FRET assay
T1 sequence (O14965 whole entry): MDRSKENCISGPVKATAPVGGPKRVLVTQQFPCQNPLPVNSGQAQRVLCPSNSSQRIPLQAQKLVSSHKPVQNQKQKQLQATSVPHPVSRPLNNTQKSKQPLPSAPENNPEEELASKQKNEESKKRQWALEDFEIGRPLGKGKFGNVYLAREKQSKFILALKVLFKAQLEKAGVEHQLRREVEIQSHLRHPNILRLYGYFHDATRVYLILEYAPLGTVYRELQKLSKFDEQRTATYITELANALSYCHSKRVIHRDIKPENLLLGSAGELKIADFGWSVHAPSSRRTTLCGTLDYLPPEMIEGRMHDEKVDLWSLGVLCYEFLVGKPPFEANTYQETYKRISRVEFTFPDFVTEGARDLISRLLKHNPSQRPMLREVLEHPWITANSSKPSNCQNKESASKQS

[3] = molecular target: Glycogen synthase kinase-3 beta (Homo sapiens, UniProt P49841); experiment: Inhibition of human recombinant GSK3beta by FRET assay
[4] = molecular target: Glycogen synthase kinase-3 alpha (Homo sapiens, UniProt P49840); experiment: Inhibition of human recombinant GSK3alpha by FRET assay
[5] = molecular target: Protein kinase C alpha type (Homo sapiens, UniProt P17252); experiment: Inhibition of human recombinant PKCalpha by FRET assay
Danio rerio = species on record: Danio rerio; experiment: Toxicity in wild type zebra fish embryo up to 30 uM; format: organism-based; details: zebrafish, in vivo

Sequence of Casein kinase I isoform epsilon (P49674 whole entry, canonical isoform): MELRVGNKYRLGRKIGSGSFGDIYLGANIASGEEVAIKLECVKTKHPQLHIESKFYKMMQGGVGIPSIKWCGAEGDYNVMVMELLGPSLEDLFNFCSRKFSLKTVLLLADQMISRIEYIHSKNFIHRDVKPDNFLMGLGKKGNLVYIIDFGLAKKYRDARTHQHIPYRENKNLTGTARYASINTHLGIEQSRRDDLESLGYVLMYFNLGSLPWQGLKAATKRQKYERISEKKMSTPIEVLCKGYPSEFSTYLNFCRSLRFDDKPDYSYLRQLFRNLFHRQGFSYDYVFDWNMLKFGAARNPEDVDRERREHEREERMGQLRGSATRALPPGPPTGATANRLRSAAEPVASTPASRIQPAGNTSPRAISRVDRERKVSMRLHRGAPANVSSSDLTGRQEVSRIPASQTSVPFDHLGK
Sequence of Cyclin-dependent kinase 5 (Q00535 whole entry, canonical isoform): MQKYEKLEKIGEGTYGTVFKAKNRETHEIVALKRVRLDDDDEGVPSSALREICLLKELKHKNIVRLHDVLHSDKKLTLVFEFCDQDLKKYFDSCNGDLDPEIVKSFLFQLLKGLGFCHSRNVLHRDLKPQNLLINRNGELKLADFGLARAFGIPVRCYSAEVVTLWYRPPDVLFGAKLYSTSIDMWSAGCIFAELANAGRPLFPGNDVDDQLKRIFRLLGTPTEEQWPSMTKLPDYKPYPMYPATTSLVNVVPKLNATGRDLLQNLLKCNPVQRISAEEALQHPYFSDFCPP
Sequence of Glycogen synthase kinase-3 alpha (P49840 whole entry): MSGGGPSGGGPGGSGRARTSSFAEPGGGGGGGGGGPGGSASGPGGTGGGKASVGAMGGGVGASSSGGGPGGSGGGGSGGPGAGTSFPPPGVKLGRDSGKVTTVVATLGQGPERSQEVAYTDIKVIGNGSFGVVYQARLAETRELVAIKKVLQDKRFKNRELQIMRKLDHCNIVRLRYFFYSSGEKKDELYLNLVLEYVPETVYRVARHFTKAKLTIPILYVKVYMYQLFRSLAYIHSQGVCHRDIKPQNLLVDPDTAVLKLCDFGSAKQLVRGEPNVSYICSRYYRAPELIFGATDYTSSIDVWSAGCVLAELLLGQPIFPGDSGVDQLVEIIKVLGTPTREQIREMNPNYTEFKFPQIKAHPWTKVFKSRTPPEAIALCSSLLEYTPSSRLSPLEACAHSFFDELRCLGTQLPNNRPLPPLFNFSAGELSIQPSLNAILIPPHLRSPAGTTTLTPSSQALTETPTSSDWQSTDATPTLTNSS
Sequence of Glycogen synthase kinase-3 beta (P49841 whole entry): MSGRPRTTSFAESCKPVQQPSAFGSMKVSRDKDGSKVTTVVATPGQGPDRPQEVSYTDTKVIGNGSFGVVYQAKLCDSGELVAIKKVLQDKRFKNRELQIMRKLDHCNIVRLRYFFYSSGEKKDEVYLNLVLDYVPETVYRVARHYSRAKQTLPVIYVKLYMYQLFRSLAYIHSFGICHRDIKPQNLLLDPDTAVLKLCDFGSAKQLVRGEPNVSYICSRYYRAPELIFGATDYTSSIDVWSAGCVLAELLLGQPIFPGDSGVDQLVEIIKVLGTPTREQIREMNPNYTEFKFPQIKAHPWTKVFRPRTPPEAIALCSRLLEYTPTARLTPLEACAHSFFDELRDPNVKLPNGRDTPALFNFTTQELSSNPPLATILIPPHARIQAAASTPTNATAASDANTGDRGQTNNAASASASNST

N#Cc1ccc(-c2ccc(CSc3nnc(-c4ccncc4)o3)cc2)cc1 was tested, and the IC50 [1] was over 100 µM, the IC50 [2] was over 100 µM and the IC50 (Aurora kinase A) was over 100 µM. The IC50 [3] was 0.153 µM, the IC50 [4] was 0.077 µM and the IC50 [5] was over 100 µM.

N#Cc1cc(F)ccc1-c1ccc(CSc2nnc(-c3ccncc3)o2)cc1 showed an IC50 [1] of over 100 µM, an IC50 [2] of over 100 µM and an IC50 (Aurora kinase A) of over 100 µM. The IC50 [3] was 0.056 µM, the IC50 [4] was 0.324 µM and the IC50 [5] was over 100 µM.

c1ccc(-c2ccc(CSc3nnc(-c4ccncc4)o3)cc2)cc1 showed an IC50 [1] of over 100 µM, an IC50 [2] of over 100 µM and an IC50 (Aurora kinase A) of over 100 µM. For the same compound, the IC50 [3] was 0.083 µM, the IC50 [4] was 0.052 µM and the IC50 [5] was over 100 µM.

CC(=O)Nc1cc(-c2nnc(SCc3ccccc3)o2)ccn1 was tested, and the IC50 [1] was over 100 µM, the IC50 [2] was over 100 µM and the IC50 (Aurora kinase A) was 60 µM. For the same compound, the IC50 [3] was 0.035 µM, the IC50 [4] was 0.02 µM and the IC50 [5] was over 100 µM.

Work on CC(=O)Nc1cc(-c2nnc(SCc3cccc(C#N)c3)o2)ccn1 yielded an IC50 [1] of over 100 µM, an IC50 [2] of over 100 µM and an IC50 (Aurora kinase A) of over 100 µM. The IC50 [3] was 0.019 µM, the IC50 [4] was 0.017 µM and the IC50 [5] was over 100 µM.

For CC(=O)Nc1cc(-c2nnc(SCc3ccc(-c4ccccc4C#N)cc3)o2)ccn1, the IC50 [1] was over 100 µM, the Activity (Danio rerio) was “Non-toxic” and the IC50 [2] was over 100 µM. It also gave an IC50 (Aurora kinase A) of over 100 µM, an IC50 [3] of 0.017 µM and an IC50 [4] of 0.002 µM. For the same compound, the IC50 [5] was over 100 µM.

For Fc1cc(F)cc(-c2ccc(CSc3nnc(-c4ccc5c(c4)OCO5)o3)cc2)c1, the IC50 [1] was over 100 µM, the IC50 [2] was 80 µM and the IC50 (Aurora kinase A) was over 100 µM. It also gave an IC50 [3] of 0.195 µM, an IC50 [4] of 0.051 µM and an IC50 [5] of over 100 µM.

COc1ccc(-c2ccc(CSc3nnc(-c4ccc5c(c4)OCO5)o3)cc2)c(C#N)c1 was tested, and the IC50 [1] was over 100 µM, the Activity (Danio rerio) was “Non-toxic” and the IC50 [2] was 50 µM. The IC50 (Aurora kinase A) was 45 µM, the IC50 [3] was 0.014 µM and the IC50 [4] was 0.005 µM. It also gave an IC50 [5] of over 100 µM.

For COc1ccc(-c2ccc(CSc3nnc(-c4ccc5c(c4)OCO5)o3)cc2)cc1, the IC50 [1] was over 100 µM, the IC50 [2] was 20 µM and the IC50 (Aurora kinase A) was 40 µM. The IC50 [3] was 0.075 µM, the IC50 [4] was 0.007 µM and the IC50 [5] was over 100 µM.

In the case of O=[N+]([O-])c1cccc(-c2ccc(CSc3nnc(-c4ccc5c(c4)OCO5)o3)cc2)c1, the IC50 [1] is reported as over 100 µM, the IC50 [2] is reported as over 100 µM and the IC50 (Aurora kinase A) is reported as over 100 µM. It also gave an IC50 [3] of 0.086 µM, an IC50 [4] of 0.015 µM and an IC50 [5] of over 100 µM.

With N#Cc1cccc(-c2ccc(CSc3nnc(-c4ccc5c(c4)OCO5)o3)cc2)c1 the IC50 [1] was over 100 µM, the IC50 [2] was over 100 µM and the IC50 (Aurora kinase A) was over 100 µM. It also gave an IC50 [3] of 0.029 µM, an IC50 [4] of 0.004 µM and an IC50 [5] of over 100 µM.

O=[N+]([O-])c1ccccc1-c1ccc(CSc2nnc(-c3ccc4c(c3)OCO4)o2)cc1 was tested, and the IC50 [1] was over 100 µM, the IC50 [2] was over 100 µM and the IC50 (Aurora kinase A) was over 100 µM. The IC50 [3] was 0.027 µM, the IC50 [4] was 0.003 µM and the IC50 [5] was over 100 µM.

c1ccc(-c2ccc(CSc3nnc(-c4ccc5c(c4)OCCO5)o3)cc2)cc1 was tested, and the IC50 [1] was over 100 µM, the IC50 [2] was over 100 µM and the IC50 (Aurora kinase A) was over 100 µM. It also gave an IC50 [3] of 0.234 µM, an IC50 [4] of 0.051 µM and an IC50 [5] of over 100 µM.

Fc1cc(F)cc(-c2ccc(CSc3nnc(-c4ccc5c(c4)OCCO5)o3)cc2)c1 showed an IC50 [1] of over 100 µM, an IC50 [2] of over 100 µM and an IC50 (Aurora kinase A) of over 100 µM. The IC50 [3] was 0.966 µM, the IC50 [4] was 0.035 µM and the IC50 [5] was over 100 µM.

COc1ccc(-c2ccc(CSc3nnc(-c4ccc5c(c4)OCCO5)o3)cc2)c(C#N)c1 gave an IC50 [1] of over 100 µM, an IC50 [2] of over 100 µM and an IC50 (Aurora kinase A) of over 100 µM. It also gave an IC50 [3] of 0.032 µM, an IC50 [4] of 0.005 µM and an IC50 [5] of over 100 µM.

COc1ccc(-c2ccc(CSc3nnc(-c4ccc5c(c4)OCCO5)o3)cc2)cc1 was tested, and the IC50 [1] was over 100 µM, the IC50 [2] was over 100 µM and the IC50 (Aurora kinase A) was over 100 µM. The IC50 [3] was 0.127 µM, the IC50 [4] was 0.019 µM and the IC50 [5] was over 100 µM.

With N#Cc1ccc(-c2ccc(CSc3nnc(-c4ccc5c(c4)OCCO5)o3)cc2)cc1 the IC50 [1] was over 100 µM, the IC50 [2] was over 100 µM and the IC50 (Aurora kinase A) was 50 µM. The IC50 [3] was 2 µM, the IC50 [4] was 0.195 µM and the IC50 [5] was over 100 µM.

In the case of O=[N+]([O-])c1cccc(-c2ccc(CSc3nnc(-c4ccc5c(c4)OCCO5)o3)cc2)c1, the IC50 [1] is reported as over 100 µM, the IC50 [2] is reported as over 100 µM and the IC50 (Aurora kinase A) is reported as over 100 µM. The IC50 [3] was 0.164 µM, the IC50 [4] was 0.015 µM and the IC50 [5] was over 100 µM.

For O=[N+]([O-])c1ccccc1-c1ccc(CSc2nnc(-c3ccc4c(c3)OCCO4)o2)cc1, the IC50 [1] was over 100 µM, the IC50 [2] was over 100 µM and the IC50 (Aurora kinase A) was over 100 µM. It also gave an IC50 [3] of 0.09 µM, an IC50 [4] of 0.004 µM and an IC50 [5] of over 100 µM.

For N#Cc1cccc(-c2ccc(CSc3nnc(-c4ccc5c(c4)OCCO5)o3)cc2)c1, the IC50 [1] was over 100 µM, the IC50 [2] was over 100 µM and the IC50 (Aurora kinase A) was over 100 µM. For the same compound, the IC50 [3] was 0.225 µM, the IC50 [4] was 0.009 µM and the IC50 [5] was over 100 µM.

Work on COc1ccc(-c2ccc(CSc3nnc(-c4ccncc4)o3)cc2)cc1 yielded an IC50 [1] of over 100 µM, an IC50 [2] of over 100 µM and an IC50 (Aurora kinase A) of over 100 µM. It also gave an IC50 [3] of 0.176 µM, an IC50 [4] of 0.24 µM and an IC50 [5] of over 100 µM.

N#Cc1cccc(-c2ccc(CSc3nnc(-c4ccncc4)o3)cc2)c1 gave an IC50 [1] of over 100 µM, an IC50 [2] of over 100 µM and an IC50 (Aurora kinase A) of 60 µM. The IC50 [3] was 0.084 µM, the IC50 [4] was 0.046 µM and the IC50 [5] was over 100 µM.

O=[N+]([O-])c1ccccc1-c1ccc(CSc2nnc(-c3ccncc3)o2)cc1 gave an IC50 [1] of over 100 µM, an IC50 [2] of over 100 µM and an IC50 (Aurora kinase A) of 5 µM. It also gave an IC50 [3] of 0.164 µM, an IC50 [4] of 0.027 µM and an IC50 [5] of over 100 µM.
